Among the data in the supplement of paper PMC10307832 are relative viability values, retold here.

Experiment in all cases: relative viability (nuclei count vs DMSO), 5 days (fraction); higher = more cells survive
Compound in test [1]: C1CC(C2=C(C1)C3=C(N2)C=CC(=C3)Cl)C(=O)N [Selisistat] + CCNC(=O)c1noc(-c2cc(C(C)C)c(O)cc2O)c1-c1ccc(CN2CCOCC2)cc1 [Luminespib] (partner 0.01 µM)
In short, it runs like this: (§1)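 One day after seeding in 1536-well plates, lung cancer cell lines were dosed by pin tool. Dosing was either single-drug or a fixed anchor-drug dose plus five library-drug doses (not always all listed) in √10 steps. After 5 days, nuclei were stained in one fix-and-stain step and counted on 4× images, and relative viability is the nuclei count of treated wells over that of vehicle wells, given as the median of duplicate plates.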

Compound in test [2]: C1CC(C2=C(C1)C3=C(N2)C=CC(=C3)Cl)C(=O)N [Selisistat] + C[C@@H](Oc1cc(-c2cnn(C3CCNCC3)c2)cnc1N)c1c(Cl)ccc(F)c1Cl [Crizotinib] (partner 1 µM)
Put shortly:
as §1

Compound in test [3]: C1CC(C2=C(C1)C3=C(N2)C=CC(=C3)Cl)C(=O)N [Selisistat] + Nc1nc2[nH]cc(CCc3ccc(C(=O)N[C@@H](CCC(=O)O)C(=O)O)cc3)c2c(=O)[nH]1 [Pemetrexed] (partner 0.2 µM)
Put shortly:
as §1

Compound in test [4]: c1ccc2c(CCNc3ccc(Nc4ccncc4)cc3)c[nH]c2c1 [Serdemetan] + COc1cccc2cc(-c3nc([C@H]4CC[C@H](C(=O)O)CC4)n4ncnc(N)c34)[nH]c12 [OSI-027] (partner 0.5 µM)
In short, it runs like this: as §1

In the case of PC-14, the relative viability was determined as 0.141 in test [1] (first compound 0.4 µM); 0.151 in test [1] (first compound 1.265 µM); 0.221 in test [1] (first compound 12.65 µM); 0.311 in test [1] (first compound 40 µM); 0.834 in test [2] (first compound 0.4 µM); 0.877 in test [2] (first compound 1.265 µM). Besides, the relative viability in test [2] (first compound 4 µM) is 0.991; in test [2] (first compound 12.65 µM) it was 0.919; in test [2] (first compound 40 µM) it was 0.936; in test [3] (first compound 0.4 µM) it was 0.116; in test [3] (first compound 1.265 µM), 0.152; in test [3] (first compound 4 µM) it was 0.123. The relative viability stood at 0.139 in test [3] (first compound 12.65 µM); 0.137 in test [3] (first compound 40 µM); 0.843 in test [4] (first compound 0.04 µM); 0.767 in test [4] (first compound 0.1265 µM); 0.139 in test [4] (first compound 0.4 µM); 0.759 in test [4] (first compound 1.265 µM). Further, the relative viability in test [4] (first compound 4 µM) turned out to be 0.514.
In the case of RERF-LC-KJ, the relative viability in test [1] (first compound 0.4 µM) came to 1.24; in test [1] (first compound 1.265 µM) it was 1.02; in test [1] (first compound 4 µM) it was 1.27; in test [1] (first compound 12.65 µM), 1.09; in test [1] (first compound 40 µM) it was 0.956; in test [2] (first compound 0.4 µM) it was 0.826. The relative viability is 0.879 in test [2] (first compound 1.265 µM); 0.835 in test [2] (first compound 4 µM); 0.771 in test [2] (first compound 12.65 µM); 0.716 in test [2] (first compound 40 µM); 0.482 in test [3] (first compound 0.4 µM); 0.466 in test [3] (first compound 1.265 µM). Besides, the relative viability in test [3] (first compound 4 µM) came to 0.467; in test [3] (first compound 12.65 µM), 0.466; in test [3] (first compound 40 µM), 0.468; in test [4] (first compound 0.04 µM), 0.589; in test [4] (first compound 0.1265 µM) it was 0.711; in test [4] (first compound 0.4 µM) it was 0.442. In addition, the relative viability in test [4] (first compound 1.265 µM) is 0.498; in test [4] (first compound 4 µM), 0.401.
Take SK-LU-1: the relative viability in test [1] (first compound 0.4 µM) came out at 0.202; in test [1] (first compound 1.265 µM), 0.176; in test [1] (first compound 4 µM) it was 0.189; in test [1] (first compound 12.65 µM) it was 0.213; in test [1] (first compound 40 µM) it was 0.227; in test [2] (first compound 0.4 µM), 1.02. In addition, the relative viability was determined as 0.987 in test [2] (first compound 1.265 µM); 1.1 in test [2] (first compound 4 µM); 1.01 in test [2] (first compound 12.65 µM); 1.09 in test [2] (first compound 40 µM); 0.985 in test [3] (first compound 0.4 µM); 0.981 in test [3] (first compound 1.265 µM). Besides, the relative viability in test [3] (first compound 4 µM) worked out at 1.01; in test [3] (first compound 12.65 µM) it was 0.967; in test [3] (first compound 40 µM) it was 1.03; in test [4] (first compound 0.04 µM) it was 0.424; in test [4] (first compound 0.1265 µM), 0.405; in test [4] (first compound 0.4 µM), 0.405. Besides, the relative viability in test [4] (first compound 4 µM) turned out to be 0.246.
For the cell line SK-MES-1, the relative viability is 1 in test [1] (first compound 0.4 µM); 0.906 in test [1] (first compound 1.265 µM); 0.802 in test [1] (first compound 4 µM); 0.622 in test [1] (first compound 12.65 µM); 0.788 in test [1] (first compound 40 µM); 1.12 in test [2] (first compound 0.4 µM). For the same cell line, the relative viability in test [2] (first compound 1.265 µM) worked out at 0.993; in test [2] (first compound 4 µM), 1.05; in test [2] (first compound 12.65 µM), 0.875; in test [2] (first compound 40 µM) it was 0.959; in test [3] (first compound 0.4 µM) it was 1.01; in test [3] (first compound 1.265 µM) it was 0.957. Moreover, the relative viability is 0.917 in test [3] (first compound 4 µM); 0.828 in test [3] (first compound 12.65 µM); 1.01 in test [3] (first compound 40 µM); 0.572 in test [4] (first compound 0.04 µM); 0.578 in test [4] (first compound 0.1265 µM); 0.621 in test [4] (first compound 0.4 µM). For the same cell line, the values for the relative viability in test [4] (first compound 1.265 µM) and in test [4] (first compound 4 µM) were 0.541 and 0.447, respectively.
As for SW 1573, the relative viability in test [1] (first compound 0.4 µM) turned out to be 0.154; in test [1] (first compound 1.265 µM), 0.135; in test [1] (first compound 4 µM), 0.222; in test [1] (first compound 12.65 µM) it was 0.206; in test [1] (first compound 40 µM), 0.228; in test [2] (first compound 0.4 µM), 0.841. For the same cell line, the relative viability in test [2] (first compound 1.265 µM) worked out at 0.791; in test [2] (first compound 4 µM), 0.8; in test [2] (first compound 12.65 µM) it was 0.922; in test [2] (first compound 40 µM) it was 0.751; in test [3] (first compound 0.4 µM), 0.798; in test [3] (first compound 1.265 µM), 0.774. Moreover, the relative viability in test [3] (first compound 12.65 µM) stood at 0.815; in test [3] (first compound 40 µM), 0.776; in test [4] (first compound 0.04 µM), 0.749; in test [4] (first compound 0.1265 µM) it was 0.705; in test [4] (first compound 0.4 µM) it was 0.716; in test [4] (first compound 1.265 µM) it was 0.439. Besides, in test [4] (first compound 4 µM), the relative viability turned out to be 0.289.
On to UMC-11, for which the relative viability in test [1] (first compound 0.4 µM) was determined as 1.03; in test [1] (first compound 1.265 µM) it was 0.931; in test [1] (first compound 4 µM), 0.896; in test [1] (first compound 12.65 µM), 1.09; in test [1] (first compound 40 µM), 1; in test [2] (first compound 0.4 µM) it was 0.812. Further, the relative viability in test [2] (first compound 1.265 µM) was 0.653; in test [2] (first compound 4 µM), 0.683; in test [2] (first compound 12.65 µM), 0.69; in test [2] (first compound 40 µM) it was 0.577; in test [3] (first compound 0.4 µM) it was 0.767; in test [3] (first compound 1.265 µM), 0.749. The relative viability was 0.844 in test [3] (first compound 4 µM); 0.754 in test [3] (first compound 12.65 µM); 0.759 in test [3] (first compound 40 µM); 0.563 in test [4] (first compound 0.04 µM); 0.485 in test [4] (first compound 0.1265 µM); 0.428 in test [4] (first compound 4 µM).
